US10000484B2, “Inhibitors of the renal outer medullary potassim channel” (MERCK SHARP & DOHME CORP., priority 2013, dated 2018)

Each compound was assayed against T1, hROMK (hKir1.1) (Homo sapiens, UniProt P48048) (assay: Thallium Flux Assay (ROMK channel functional thallium flux assay, FLIPR-Tetra)). Conditions: HEK293 cells stably expressing hROMK; 30 min incubation with compound.
T1 construct: expressed in transfected cells
T1 sequence (P48048 1-391): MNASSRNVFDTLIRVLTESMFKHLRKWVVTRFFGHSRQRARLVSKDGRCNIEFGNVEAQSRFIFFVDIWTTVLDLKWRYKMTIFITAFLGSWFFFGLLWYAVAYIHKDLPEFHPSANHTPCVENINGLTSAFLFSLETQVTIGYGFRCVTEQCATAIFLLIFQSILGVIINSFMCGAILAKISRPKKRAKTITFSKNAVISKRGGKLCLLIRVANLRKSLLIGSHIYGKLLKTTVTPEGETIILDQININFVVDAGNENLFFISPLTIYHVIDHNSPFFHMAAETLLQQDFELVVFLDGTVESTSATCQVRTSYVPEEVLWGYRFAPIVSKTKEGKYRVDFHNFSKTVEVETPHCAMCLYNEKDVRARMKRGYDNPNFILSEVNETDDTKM
Assay type: cell-based
Method: The following Thallium Flux Assay was performed on each of the final product compounds in the Examples. When the final product of an Example was an HCl salt, the salt was run in the Assay.
HEK293 cells stably expressing hROMK (hKir1.1) were grown at 37° C. in a 10% CO2 humidified incubator in complete growth media: Dulbecco's Modified Eagle Medium supplemented with non-essential amino acids, Penicillin/Streptomycin/Glutamine, G418 and FBS. At >80% confluency, aspirate the media from the flask and rinse with 10 mL Calcium/Magnesium-free PBS. Add 5 mL of 1× trypsin (prepared in Ca/Mg Free PBS) to T-225 flask and return flask to 37° C./CO2 incubator for 2-3 minutes. To dislodge the cell, gently bang the side of the flask with your hand. Triturate the cells completely and then transfer the cells to 25 mL complete media. Centrifuge at 1,500 rpm for 6 min followed by resuspension in complete growth media and determine cell concentration. For typical re-seeding, 4E6 cells/T-225 flask will attain >80% confluency in 4 days. Under ideal growth conditions and appropriate tissue culture practices, this cell line is stable for 40-45 passages.
FluxOR Kit Components (Invitrogen F10017)
• FluxOR™ Reagent (Component A) • FluxOR™ Assay Buffer (Component B)—10× Concentrate • PowerLoad™ Concentrate (Component C)—100× Concentrate • Probenecid (Component D)—Lyophilized sample is kept at −20° C. Water soluble, 100× after solubilization in 1 mL water. Store at 4° C. • FluxOR™ Chloride-free Buffer (Component E)—5× Concentrate • Potassium sulfate (K2SO4) Concentrate (Component F)—125 mM in water. Store at 4° C. • Thallium sulfate (Tl2SO4) Concentrate (Component G)—50 mM in water. Store at 4° C. • DMSO (dimethyl sulfoxide, Component H)—1 mL (100%) Reagent Preparation: FluxOR Working Solutions • 1000× FluxOR™ Reagent: Reconstitute a vial of component A in 100 μl DMSO; Mix well; Store 10 μl aliquots at −20° C. • 1× FluxOR™ Assay Buffer: Dilute Component B 10-fold with water; Adjust pH to 7.4 with Hepes/NaOH; Filter and store at 4° C. • Probenecid/Assay Buffer: 100 mL of 1× FluxOR™ Assay Buffer; 1 mL of reconstituted component D; Store at 4° C. • Loading Buffer (per microplate): 10 μl 1000× FluxOR™ Reagent; 100 μl component C; 10 mL Probenecid/Assay Buffer • Compound Buffer (per microplate): 20 mL Probenecid/Assay Buffer; 0.3 mM ouabain (10 mM ouabain in water can be stored in amber bottle/aluminum foil at room temperature); Test compound • 1× FluxOR™ Chloride-Free Buffer: Prepare 1× working solution in water. Can be stored at room temperature • Stimulant Buffer (prepared at 5× final concentration in 1× FluxOR™ Chloride-Free Buffer): 7.5 mM Thallium sulfate and 0.75 mM Potassium sulfate (to give a final assay concentration of 3 mM Thallium/0.3 mM Potassium). Store at 4° C. when not in use. Assay Protocol—
The ROMK channel functional thallium flux assay is performed in 384 wells, using the FLIPR-Tetra instrument. HEK-hKir1.1 cells are seeded in Poly-D-Lysine microplates and kept in a 37° C.-10% CO2 incubator overnight. On the day of the experiment, the growth media is replaced with the FluxOR™ reagent loading buffer and incubated, protected from light, at ambient temperature (23-25° C.) for 90 min. The loading buffer is replaced with assay buffer±test compound followed by 30 min incubation at ambient temperature, where the Thallium/Potassium stimulant is added to the microplate.
1. Seed HEK-hKir1.1 cells (50 μl at 20,000 cells/well) in 384-well PDL coated Microplates
2. Allow cells to adhere overnight in humidified 37° C./10% CO2 incubator
3. Completely remove cell growth media from microplate and replace with 25 μl loading buffer
4. Incubate Microplate at room temperature, protected form light, for 90 min
5. Remove loading buffer and replace with 25 μl 1× Assay Buffer±test compound.
6. Incubate microplate at room temperature, protected from light, for 30 min
7. At FLIPR-Tetra 384: Add stimulant (Thallium/Potassium) solution to microplate and monitor fluorescence. […]

SMILES | IC50 [µM]
Cc1c(C(O)CN2CCn3cc(-c4ccc5c(c4)COC5=O)nc3C2)ccc2c1COC2=O (stereo not drawn) [Example 34, 5-{1-hydroxy-2-[2-(1-oxo-1,3-dihydro-2-benzofuran-5-yl)-5,6-dihydroimidazo[1,2-a]pyrazin-7(8H)-yl]ethyl}-4-methyl-2-benzofuran-1(3H)-one] | 0.0994
Cc1c([C@@H](O)CN2CCc3c(cnn3-c3ccc(C#N)cn3)C2)ccc2c1COC2=O [Example 43, 6-{5-[(2R)-2-hydroxy-2-(4-methyl-1-oxo-1,3-dihydro-2-benzofuran-5-yl)ethyl]-4,5,6,7-tetrahydro-1H-pyrazolo[4,3-c]pyridin-1-yl}pyridine-3-carbonitrile] | 0.592
N#Cc1ccc(-n2cc3c(n2)CCN(CCc2ccc4c(c2)COC4=O)C3)cc1 [Example 5, 4-{5-[2-(1-oxo-1,3-dihydro-2-benzofuran-5-yl)ethyl]-4,5,6,7-tetrahydro-2H-pyrazolo[4,3-c]pyridin-2-yl}benzonitrile] | 0.0438
Cc1cc(C#N)ccc1-c1ncc2c(n1)CCN(CCc1ccc3c(c1C)COC3=O)C2 [Example 1, 3-methyl-4-(6-(2-(4-methyl-1-oxo-1,3-dihydroisobenzofuran-5-yl)ethyl)-5,6,7,8-tetrahydropyrido[4,3-d]pyrimidin-2-yl)benzonitrile] | 0.477
Cc1c(CCN2CC[C@@H]3[C@@H](C2)OC(=O)N3Cc2ccc3c(c2C)COC3=O)ccc2c1COC2=O [Example 29] | 0.201
Cc1c([C@@H](O)CN2CCc3c(-c4ccc(C#N)c(F)c4)n[nH]c3C2)ccc2c1COC2=O [Example 42, 3-(4-cyano-3-fluorophenyl)-6-((R)-2-hydroxy-2-(4-methyl-1-oxo-1,3-dihydroisobenzofuran-5-yl)ethyl)-4,5,6,7-tetrahydro-1H-pyrazolo[3,4-c]pyridine] | 0.173
O=C1OCCc2cc(CCN3CCn4cc(-c5ccc6c(c5)COC6=O)nc4C3)ccc21 [Example 20, 6-{2-[2-(1-oxo-1,3-dihydro-2-benzofuran-5-yl)-5,6-dihydroimidazo[1,2-a]pyrazin-7(8H)-yl]ethyl}-3,4-dihydro-1H-isochromen-1-one] | 0.192
CC1=C(N2CC3=C(CCN(C[C@H](O)c4ccc5c(c4C)COC5=O)CC3)C2=O)COC1=O [Example 31, (R)-6-(2-Hydroxy-2-(4-methyl-1-oxo-1,3-dihydroisobenzofuran-5-yl)ethyl)-2-(4-methyl-5-oxo-2,5-dihydrofuran-3-yl)-2,3,5,6,7,8-hexahydropyrrolo[3,4-d]azepin-1(4H)-one] | 0.064
COc1cc(-c2ncc3c(n2)CCN(CCc2ccc4c(c2C)COC4=O)C3)ccc1C#N [Example 11, 2-methoxy-4-{6-[2-(4-methyl-1-oxo-1,3-dihydro-2-benzofuran-5-yl)ethyl]-5,6,7,8-tetrahydropyrido[4,3-d]pyrimidin-2-yl}benzonitrile] | 0.0838
Cc1c(CCN2CCn3c(nn(-c4ccc(C#N)c(F)c4)c3=O)C2)ccc2c1COC2=O [Example 24, 2-fluoro-4-{7-[2-(4-methyl-1-oxo-1,3-dihydro-2-benzofuran-5-yl)ethyl]-3-oxo-5,6,7,8-tetrahydro[1,2,4]triazolo[4,3-a]pyrazin-2(3H)-yl}benzonitrile] | 0.177
Cc1c(C(O)CN2CCc3nc(-c4ccc(C#N)cc4F)ncc3C2)ccc2c1COC2=O (stereo not drawn) [Example 41, 3-fluoro-4-{6-[2-hydroxy-2-(4-methyl-1-oxo-1,3-dihydro-2-benzofuran-5-yl)ethyl]-5,6,7,8-tetrahydropyrido[4,3-d]pyrimidin-2-yl}benzonitrile] | 0.463
Cc1c(C(O)CN2CCc3nc(-c4ccc(C#N)cn4)ncc3C2)ccc2c1COC2=O (stereo not drawn) [Example 40, 6-{6-[2-hydroxy-2-(4-methyl-1-oxo-1,3-dihydro-2-benzofuran-5-yl)ethyl]-5,6,7,8-tetrahydropyrido[4,3-d]pyrimidin-2-yl}pyridine-3-carbonitrile] | 0.155
